# Reference: patent US12616193B2, “5-(1H-indol-3-yl)-oxazole, -oxadiazole and -furan derivatives as enhancers of sperm motility” (SPERMATECH AS, priority 2020, dated 2026)
# Where two headings read alike, the source gives them in different places.
# Key:
# sows [1] = assay: Field trial study, 441 sows (Example 6); assay type: in vivo, pig
# Source text: Following the success of the pilot study reported in Example 5, a larger field trial study was conducting which included 441 sows. 224 sows received untreated control sperm and 217 received sperm treated with Compound No. 1 (“activator”).
# [2] = tested on: mice oocytes contacted with mice sperm cells; assay: In vitro fertilization, mouse (Example 3); assay type: cell-based
# Method: In vitro fertilization (IVF) studies were conducted to determine whether the activator compound No. 1 has any adverse effects on the fertilization process. Male mice were sacrificed, and the epididymis was opened to release the sperm into the appropriate buffer in a petri dish. The sperm cells were incubated with 50 μM of the activator compound for one hour before an aliquot was transferred to a petri dish containing oocytes. The cells were further incubated at 37° C. and 1-cell/2-cell eggs were counted after 24 hours. The experiment was performed in duplicates using sperm from the same epididymis and oocytes from two different mice.
# boar sperm [3] = assay: Determination of boar sperm motility and progressive motility by CASA (Example 1); assay type: cell-based, Duroc boar; details: for EC50: 0.2 h, 12 min at 37° C., activation-% relative to DMSO-only control
# Method: Duroc boar sperm samples were received from Norsvin AS and contained pooled semen from three individual boars. Semen samples were stored in Androstar® extender (mini-tube) at 18° C. prior to use. Compound No. 1 was tested in duplicates, using 2-fold serial dilutions including 10 individual concentrations starting from 100 μM. 995 μL semen were aliquoted in Eppendorf tubes and 5 μL of Compound No. 1 diluted in DMSO were added leading to the described final concentrations. The resulting semen samples were mixed gently and incubated for 12 min at 37° C. in a water bath. Subsequently, 10 μL of each semen sample was added to a counting chamber slide (Leja) and incubated on a plate incubator at 37° C. Sperm motility, progressive motility and curvilinear velocity were determined using a CASA (Hamilton Thorne), starting from 14 min. For each chamber A and B 15 individual frames were analysed and motility as well as progressive motility data was read out. The data were converted into activation-% using DMSO-only controls (set to 100% activity) by determining the percental increase of either motility or progressive motility relative to the control sample without added Compound No. 1. For the determination of EC50 values, data were fitted using Prism8 (non-linear fit, absolute IC50, x is concentration, graphpad.com).
# sows [4] = assay: Field trial pilot study, artificial insemination of sows (Example 5); assay type: in vivo, pig
# Method: A pilot field study included 27 sows of which 13 received untreated control sperm and 14 received sperm treated with Compound No. 1 (“activator”). Insemination doses were collected from the same animals during the course of the experiment and contained pooled semen from three individual boars. 45 μl 100 mM activator solution in DMSO was added to 89 ml boar sperm (final concentration of 50 μM) directly before insemination which was carried out within 15 to 45 min. The sperm was transferred to an insemination bottle and then the activator was added. After placing the insemination catheter into the cervix of the sow, the bottle was connected, and the sperm sample was released into the sow. The sows received insemination doses on two subsequent days. After 30 to 35 days the animals were sacrificed, the uteri were removed and embryos were counted for all […]. Organ material from 5 activator-receiving sows and 5 sows from the control group were optically inspected and samples from the uterus, cervix and vagina were formalin-fixated for histology examination. […] The formalin preparations were cut and stained with hematoxylin eosin for histological examination. The histopathological assessment included a thorough evaluation of the epithelium of the mucosa and the underlying lamina propria. In both the epithelium and lamina propria, particular emphasis was placed on acute changes. In the epithelium, the acute changes included single cell necrosis/apoptosis and infiltration of polymorphonuclear leukocytes. In the lamina propria, infiltration of polymorphonuclear leukocytes was considered as the most important acute change. […] Infiltration of lymphocytes in the epithelium and lamina propria was considered to be within the normal range of all individuals. Flattening and possibly loss of surface epithelium were partly difficult to assess. Edema and bleeding in the lamina propria were detected in several individuals. Heat and age are the denominators of leukocyte infiltration in sows and are considered normal. The average number of embryos was determined for the sows of the control group (n=11, 11 sows were in pig after insemination) and the activator-receiving group (n=13, 13 sows in pig after insemination).
# boar sperm [5] = assay: Effect of long-term storage at 18° C. on boar sperm, activator freshly added (Example 2); assay type: cell-based
# Method: The effect of Compound No. 1 (“activator”) on the shelf-life of boar sperm was evaluated. Compound No. 1 was freshly added to stored boar sperm aliquots. The sperm samples were stored as aliquots in Eppendorf tubes (995 μl) at 18° C. During the course of one week 5 μl 10 mM activator solution in DMSO (50 μM final concentration) was added to one aliquot and the resulting solution was incubated in a water bath at for 12 min at 37° C. Subsequently, 10 μl semen samples were taken out and added to a counting chamber slide, incubated for 2 min at 37° C. and analysed as described in Example 1.
# Human T-cells = assay: Genotoxicity, comet assay (Example 4); assay type: cell-based
# Method: Human T-cells (four concentrations of Compound No. 1 including 0 μM; two exposure times) were embedded in 1% agarose, lysed in cold 2.5 M NaCl, 0.1 M EDTA, 10 mM Tris buffer, and 1% Triton X-100, pH 10. Incubation with dithiothreitol and lithium diiodosalicylate was followed by incubation in cold 0.3M NaOH, and 1 mM EDTA for 20 min and then electrophoresis at 0.8 V/cm for 20 min in a cold room. After neutralization with PBS, and staining with SYBRGold (Invitrogen), slides were scored using the Comet Assay IV image analysis programme (Perceptive Instruments).
# [6] = 217 sows with treated sperm vs 224 sows with untreated control sperm
# [7] = 50 μM added to boar sperm stored at 18° C. for 1 to 8 days, FIG. 2
structure (smiles),measurement,setting,value
O=C(CSc1nnc(-c2c[nH]c3ccccc23)o1)Nc1ccc2c(c1)OCO2 [Compound No. 1],average increase in live piglets born per sow,sows [1]; [6],~1 live piglet born per sow
same,increase in pregnancy rate,sows [1]; [6],5%
same,weaning to service interval (WSI),sows [1]; treated vs untreated control sperm,improved the weaning to service interval
same,interference with the fertilization process,"[2]; 50 μM, mouse IVF",does not interfere with the fertilization process
same,fertility rates vs control,"[2]; mouse sperm incubated with 50 μM for one hour, eggs counted after 24 hours",comparable to the control samples
same,EC50,"boar sperm [3]; n=6, read-out: Absolute EC50 motility",3.31 µM
same,EC50,"boar sperm [3]; n=6, read-out: absolute EC50 progressive motility",11.2 µM
same,motility,"boar sperm [3]; FIG. 1B, n=4, up to 100 μM",increases both motility and progressive motility in a dose-dependent manner
same,progressive motility,"boar sperm [3]; FIG. 1B, n=4, up to 100 μM",increases both motility and progressive motility in a dose-dependent manner
same,"optical inspection of organ material (cervix, uteri, vaginae)","sows [4]; 5 activator-receiving sows, 30 to 35 days after insemination with sperm treated at 50 μM",mostly normal mucosa and no signs of lesions
same,sows in pig after insemination,sows [4]; of 14 sows receiving sperm treated at 50 μM (control 11 of 13),13
same,sows with abundant infiltration of polymorphonuclear leukocytes mostly in the cervix and uterus,"sows [4]; of five sows in the activator group (control: one sow), histology",Three of the five sows
same,sows with necrosis/apoptosis detected,"sows [4]; of five sows in the activator-receiving group (control: one), histology",one of the sows
same,pregnancy rates in the sows,sows [4]; sperm treated at 50 μM vs untreated control sperm,increase pregnancy rates
same,average increase of embryos per sow,"sows [4]; vs control group, embryos counted after 30 to 35 days, FIG. 5",2 embryos per sows
same,motility of stored sperm samples,boar sperm [5]; [7],"increases motility and progressive motility, even after 7 days of storage"
same,progressive motility of stored sperm samples,boar sperm [5]; [7],"increases motility and progressive motility, even after 7 days of storage"
same,boar sperm shelf life,"boar sperm [5]; 50 μM, storage at 18° C.",has a positive impact on boar sperm shelf life
same,% Tail DNA,"Human T-cells; 0.5 hr exposure, 5 μM",0.2%
same,% Tail DNA,"Human T-cells; 0.5 hr exposure, 50 μM",0.6%
same,% Tail DNA,"Human T-cells; 0.5 hr exposure, 500 μM",0.4%
same,% Tail DNA,"Human T-cells; 3 hr exposure, 5 μM",0.5%
same,% Tail DNA,"Human T-cells; 3 hr exposure, 50 μM",0.1%
same,% Tail DNA,"Human T-cells; 3 hr exposure, 500 μM",0.2%
same,genotoxic effects,"Human T-cells; up to 500 μM, 0.5 and 3 hr exposure",No genotoxic effects
"OO [H2O2, reference compound]",% Tail DNA,Human T-cells; Control+ treatment,75.4%
